Measurements taken from patent US4766119A, “Antispasmodic alkylated aminothioester derivatives” (United Pharmaceuticals, Inc., priority 1985, dated 1988).
Counter-ions that a name gives are not always drawn.

Assays:
[1] = system: muscarinic receptors (rabbit lung tissue); format: binding, rabbit (New Zealand White); conditions: 0.1 nM [3H]QNB, 37° C., 60 min, pH 7.4
[2] = system: bethanechol-contracted rabbit bladder strips; assay: relaxation of bethanechol-contracted rabbit urinary bladder strip (organ bath); format: cell-based; conditions: 250 μM bethanechol; for inhibition at 100 µM / inhibition at 10 µM / inhibition at 1 µM / inhibition at 0.1 µM / inhibition at 0.01 µM: Oryctolagus cuniculus, maximal relaxation = pre-bethanechol tone, read-out: % of maximum relaxation
Experimental: The pharmacological actions of two anti-spasmodic compounds were studied in a rabbit urinary bladder strip preparation. In general, longitudinal strips were prepared from the base of freshly isolated rabbit bladders and were then suspended under near-physiological conditions in tissue baths. The strips were attached to force transducers and both contractile and relaxant activity was measured. To measure the relaxant effects on the anti-spasmodic compounds on previously-contracted bladder strips, the strips were initially exposed to the muscarinic receptor agonist bethanechol and allowed to reach a steady level of contractile activity for 20 minutes. At this point cumulative dose-responses to the various compounds were recorded. The rabbit abdomens were opened through a vertical midline incision. The bladder and urethra were dissected free of all surrounding tissues, removed and placed in aerated (95% O2 :5% CO2) Kreb's-bicarbonate buffer (pH: 7.4) of the following composition ([…]): KCl 4.6, CaCl2.2H2 O 2.5, KH2 PO4 1.2, MgSO4.7H2 O 1.2, NaCl 118.2, NaHCO3 24.8, and glucose 10.0. Longitudinal muscle strips were prepared from the bladder base (approximately 6 mm×4 mm) and suspended in an organ bath containing Kreb's buffer (37° C.) which was continuously aerated with O2 :CO2 (95%:5%). Tissues were allowed to equilibrate to a tension of 2 gm for sixty minutes during which time buffer was replaced at 20 minute intervals. The contractile and relaxant responses of the muscle strips were measured isometrically with a Statham UC3 force-displacement transducer and recorded on an Electronics for Medicine DR8 oscillographic recorder. Bethanechol was employed as the representative cholinergic agonist and, following equilibration, was added to the baths for a final concentration of 250 μM. The tissues were allowed 20 minute to achieve a maintained level of contraction in response to bethanechol and, at this point, cumulative dose-response measurements for two anti-spasmodic compounds were started at concentrations ranging from 10^-8 M to 10^-4 M. Solutions were added in volumes up to 100 μl and were prepared fresh each day by dissolving them in distilled: deionzed water. Responses were measured 5 minutes following any particular cumulative addition and were expressed as a percentage of maximal relaxation (e.g. maximal relaxation is the baseline or pre-bethanechol level of muscle tone).
Dose responses, measured from the standard bethanechol-contracted rabbit bladder strips, at various concentrations of 2-ethyl-butyrol-thio-S-(2-diethylaminoethyl)-ester [CH3 CH2)2 --CH--CO--S--(CH2)2 --N--(CH2 CH3)2.HCl], are presented in Table I:
Dose responses, measured from the standard bethanechol-contracted rabbit bladder strips, at various concentrations of 2-propyl-pentanoyl-thiol-S-(2-diethylaminoethyl)-ester.HCl [(CH3 CH2 CH2)2 --CH--CO--S--(CH2)2 --N--(CH2 CH3)2.HCl] are presented in Table II: […]

[3] = system: smooth muscle (gastrointestinal tract, biliary tract, ureter and uterus); conditions: cited from earlier work
[4] = system: salivary and sweat glands, GI glands, the eye or the cardiovascular system; conditions: cited from earlier work

CCC(CC)C(=O)SCCN(CC)CC [2-ethyl-butyryl-thio-S-(2-diethylaminoethyl)ester.HCl]
% inhibition of 3H[QNB] binding (at a concentration of 1.0 × 10^-5 M) [1]: 64% | Decrease in force of contraction of rabbit bladder strip ([2]; 10^-4 moles/liter): 0.54 gm | Increase in length of rabbit bladder strip ([2]; 10^-4 moles/liter): 1.3 cm | Decrease in force of contraction of rabbit bladder strip ([2]; 10^-5 moles/liter): 0.29 gm | Increase in length of rabbit bladder strip ([2]; 10^-5 moles/liter): 0.7 cm | Decrease in force of contraction of rabbit bladder strip ([2]; 10^-6 moles/liter): 0.25 gm | Increase in length of rabbit bladder strip ([2]; 10^-6 moles/liter): 0.6 cm | Decrease in force of contraction of rabbit bladder strip ([2]; 10^-7 moles/liter): 0.17 gm | Increase in length of rabbit bladder strip ([2]; 10^-7 moles/liter): 0.4 cm | Decrease in force of contraction of rabbit bladder strip ([2]; 10^-8 moles/liter): 0.13 gm | Increase in length of rabbit bladder strip ([2]; 10^-8 moles/liter): 0.3 cm | inhibition at 100 µM ([2]; 10^-4 moles/liter): 37% | inhibition at 10 µM ([2]; 10^-5 moles/liter): 20% | inhibition at 1 µM ([2]; 10^-6 moles/liter): 17.1% | inhibition at 0.1 µM ([2]; 10^-7 moles/liter): 11.4% | inhibition at 0.01 µM ([2]; 10^-8 moles/liter): 8.6%

CCCC(CCC)C(=O)SCCN(CC)CC [2-propyl-pentanoyl-thio-S-(2-diethylaminoethyl)-ester.HCl]
% inhibition of 3H[QNB] binding (at a concentration of 1.0 × 10^-5 M) [1]: 95% | Decrease in force of contraction of rabbit bladder strip ([2]; 10^-4 moles/liter): 0.81 gm | Increase in length of rabbit bladder strip ([2]; 10^-4 moles/liter): 2.9 cm | Decrease in force of contraction of rabbit bladder strip ([2]; 10^-5 moles/liter): 0.31 gm | Increase in length of rabbit bladder strip ([2]; 10^-5 moles/liter): 1.1 cm | Decrease in force of contraction of rabbit bladder strip ([2]; 10^-6 moles/liter): 0.0 gm | Increase in length of rabbit bladder strip ([2]; 10^-6 moles/liter): 0.0 cm | Decrease in force of contraction of rabbit bladder strip ([2]; 10^-7 moles/liter): 0.0 gm | Increase in length of rabbit bladder strip ([2]; 10^-7 moles/liter): 0.0 cm | Decrease in force of contraction of rabbit bladder strip ([2]; 10^-8 moles/liter): 0.0 gm | Increase in length of rabbit bladder strip ([2]; 10^-8 moles/liter): 0.0 cm | inhibition at 100 µM ([2]; 10^-4 moles/liter): 100% | inhibition at 10 µM ([2]; 10^-5 moles/liter): 100% | inhibition at 1 µM ([2]; 10^-6 moles/liter): 0% | inhibition at 0.1 µM ([2]; 10^-7 moles/liter): 0% | inhibition at 0.01 µM ([2]; 10^-8 moles/liter): 0%

CCN(CC)CCSC(=O)C(c1ccccc1)c1ccccc1 [Thiphenamil hydrochloride]
decrease of spasm [3]: decrease spasm of the gastrointestinal tract, biliary tract, ureter and uterus | characteristic atropinic side effects [4]: without producing characteristic atropinic side effects on salivary and sweat glands, GI glands, the eye or the cardiovascular system
